According to the Deep4Chem optical property database:
Values belong to the compound of their own block, whether it stands above or below them.

Assay: photoluminescence quantum yield (fraction); solvent given as SMILES

photoluminescence quantum yield (in CC(C)O): 0.14
Structure (SMILES): CCN1C(=CC2=C([O-])C(=Cc3[se]c4ccccc4[n+]3CC)C2=O)[Se]c2ccccc21

photoluminescence quantum yield (in ClCCl): 0.9
Structure (SMILES): C1=Cc2ccc(N(c3ccccc3)c3ccccc3)cc2C2(c3cc(N(c4ccccc4)c4ccccc4)ccc31)c1ccccc1-c1ccccc12

photoluminescence quantum yield (in C1CCOC1): 0.46 | photoluminescence quantum yield (in CC#N): 0.46 | photoluminescence quantum yield (in CN(C)C=O): 0.75 | photoluminescence quantum yield (in ClCCl): 0.56 | photoluminescence quantum yield (in c1ccccc1): 0.49
Structure (SMILES): CCN1c2ccc(-c3cc(C(F)(F)F)[nH]n3)cc2Sc2cc(-c3cc(C(F)(F)F)[nH]n3)ccc21

photoluminescence quantum yield (in ClC(Cl)Cl): 0.006
Structure (SMILES): CCCCCCN1C(=O)c2cccc3cc(/N=C\c4cnc5ccccc5c4)cc(c23)C1=O

photoluminescence quantum yield (in C1COCCO1): 0.65
Structure (SMILES): CCC(C)(C)c1ccc(-c2ccc(-c3ccccc3)cc2)cc1

photoluminescence quantum yield (in ClCCl): 0.52
Structure (SMILES): CN(C)c1cc(-c2ccccc2)cc2ccccc12

photoluminescence quantum yield (in ClCCl): 0.68
Structure (SMILES): CCCCCCOC(=O)/C=C/C1=CC2=C(c3c(C)cc(C)cc3C)c3cc(/C=C/C(=O)OCCCCCC)cn3[B-](F)(F)[N+]2=C1

Structure (SMILES): Nc1ccccc1
photoluminescence quantum yield (in C1CCCCC1): 0.1

photoluminescence quantum yield (in CC#N): 0.051
Structure (SMILES): N#C/C(=C\c1ccc([N+](=O)[O-])cc1)c1nc(-c2ccccc2)cs1

photoluminescence quantum yield (in ClC(Cl)Cl): 0.435
Structure (SMILES): Cc1c2c(nc3ccccc13)-c1cc3c(cc1CC2)-c1nc2ccccc2c(C)c1CC3

photoluminescence quantum yield (in ClCCl): 0.58
Structure (SMILES): C1=Cc2ccc(N(c3ccccc3)c3cccc4ccccc34)cc2C2(c3cc(N(c4ccccc4)c4cccc5ccccc45)ccc31)c1ccccc1-c1ccccc12

photoluminescence quantum yield (in O): 0.002
Structure (SMILES): COc1cc(/C=C/C(=O)O)ccc1O

Structure (SMILES): O=C1c2ccc(N(c3ccc(-c4ccccc4)cc3)c3ccc(-c4ccccc4)cc3)cc2C(=O)c2ccc(N(c3ccc(-c4ccccc4)cc3)c3ccc(-c4ccccc4)cc3)cc21
photoluminescence quantum yield (in Cc1ccccc1): 0.1 | photoluminescence quantum yield (in c1ccc2c(c1)c1ccccc1n2-c1ccc(-c2ccc(-n3c4ccccc4c4ccccc43)cc2)cc1): 0.42

photoluminescence quantum yield (in CC#N): 0.49 | photoluminescence quantum yield (in CO): 0.32 | photoluminescence quantum yield (in ClCCl): 0.61
Structure (SMILES): O=C1c2ccccc2-c2c(-c3cc(Br)ccc3O)[nH]c(=O)n21

photoluminescence quantum yield (in CC#N): 0.026 | photoluminescence quantum yield (in CCCCCC): 0.024
Structure (SMILES): COc1ccc(-n2c(C)ccc2C)cc1

Structure (SMILES): c1ccc(-c2cc(-c3ccc(N4c5ccccc5C5(c6ccccc64)c4ccccc4N(c4ccc(-c6cc(-c7ccccc7)nc(-c7ccccc7)n6)cc4)c4ccccc45)cc3)nc(-c3ccccc3)n2)cc1
photoluminescence quantum yield (in O=P(c1ccccc1)(c1ccccc1)c1ccccc1Oc1ccccc1P(=O)(c1ccccc1)c1ccccc1): 0.73

photoluminescence quantum yield (in ClCCl): 0.4
Structure (SMILES): COc1ccc(C2=C3C(/C=C/c4cc(OC)c(OC)c(OC)c4)=C(C=O)C(/C=C/c4cc(OC)c(OC)c(OC)c4)=[N+]3[B-](F)(F)n3c(/C=C/c4cc(OC)c(OC)c(OC)c4)c(C=O)c(C=Cc4cc(OC)c(OC)c(OC)c4)c32)cc1

photoluminescence quantum yield (in ClCCl): 0.07
Structure (SMILES): CC1=NN(c2cccc3ccccc23)[B-](F)(F)[n+]2ccccc21

photoluminescence quantum yield (in ClC(Cl)Cl): 0.34
Structure (SMILES): COc1cc(C=C(C#Cc2ccccc2)C#Cc2ccccc2)c(OC)cc1C=C(C#Cc1ccccc1)C#Cc1ccccc1

photoluminescence quantum yield (in ClC(Cl)Cl): 0.59
Structure (SMILES): CCCCCCCCOc1ccc(-c2c3c4n(c(-c5ccc(OCCCCCCCC)cc5)c3c3n2[B-](F)(F)[n+]2c(ccc5cc(C(C)(C)C)ccc52)C=3C#N)[B-](F)(F)[n+]2c(ccc3cc(C(C)(C)C)ccc32)C=4C#N)cc1

photoluminescence quantum yield (in ClC(Cl)Cl): 0.55
Structure (SMILES): CN1CCCc2cc(C3=Cc4cccc[n+]4[B-](F)(F)O3)ccc21

photoluminescence quantum yield (in C1CCCCC1): 0.9
Structure (SMILES): CCC(C)(C)c1ccc2c(c1)C(CCOC)(CCOC)c1cc(-c3ccc(-c4ccc5c(c4)C(CCOC)(CCOC)c4cc(C(C)(C)CC)ccc4-5)cc3)ccc1-2

photoluminescence quantum yield (in CC#N): 0.91 | photoluminescence quantum yield (in CO): 0.97
Structure (SMILES): O=c1c2ccccc2c2c3c(cccc13)c(-c1ccccc1)c1c3cccc4cccc(c43)c12

Structure (SMILES): CCCCc1ccc(-n2c3c4cc(F)ccc4nnc3c3c2c2nnc4ccc(F)cc4c2n3-c2ccc(CCCC)cc2)cc1
photoluminescence quantum yield (in Cc1ccccc1): 0

photoluminescence quantum yield (in ClCCl): 0.00105
Structure (SMILES): CCOC(=O)C1=C(C(=O)OC)N2CCc3cc(OC)c(OC)cc3C2=C[C@H](c2ccc(Cl)cc2)C12c1ccccc1-c1ccccc12

photoluminescence quantum yield (in C1CCOC1): 0.26
Structure (SMILES): COc1ccc(C2=C(c3ccc(OC)cc3)C(c3ccc(OC)cc3)=[N+]3C2=C(c2ccc(OC)cc2)c2c(-c4ccc(OC)cc4)c(-c4ccc(OC)cc4)c(-c4ccc(OC)cc4)n2[B-]3(F)F)cc1
